We go through five compounds from the supplement of paper PMC10307832.

Assay in all cases: relative viability (nuclei count vs DMSO), 5 days (fraction); higher = more cells survive
For assay [1], the system named is NCI-H2126. A digest of the protocol: (§1)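 Relative viability equals treated-well nuclei counts divided by vehicle-well nuclei counts. Counts came from 4× images of lung cancer cell lines grown in 1536-well plates for 5 days after pin-tool dosing on the day after seeding. Dosing used one drug alone or a fixed anchor-drug dose plus five library-drug doses (not always all listed) in √10 steps, and values are medians of duplicate plates.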

The subject of assay [2] is NCI-H522. A digest of the protocol:
as §1

The test system of assay [3] is EKVX. A digest of the protocol: as §1
Assay [4] has as its system NCI-H1648. A digest of the protocol: as §1
Assay [5] has as its system ABC-1. A digest of the protocol: as §1
Assay [6] has as its system NCI-H1703. The method in brief: as §1
Assay [7] relates to A549. A digest of the protocol:
as §1

For `O=C(O)c1ccc(-c2c[nH]c3ncc(-c4ccccc4)cc23)cc1C1CCCC1` + CC(=O)Nc1cccc(-n2c(=O)n(C3CC3)c(=O)c3c(Nc4ccc(I)cc4F)n(C)c(=O)c(C)c32)c1 [Trametinib] (partner 0.02 µM), the relative viability was determined as 0.597 in assay [1] (first compound 0.04 µM); 0.585 in assay [1] (first compound 0.1265 µM); 0.562 in assay [1] (first compound 0.4 µM); 0.55 in assay [1] (first compound 1.265 µM); 0.696 in assay [2] (first compound 0.04 µM); 0.761 in assay [2] (first compound 0.1265 µM). Moreover, the relative viability turned out to be 0.763 in assay [2] (first compound 0.4 µM); 0.768 in assay [2] (first compound 1.265 µM); 0.322 in assay [3] (first compound 0.04 µM); 0.408 in assay [3] (first compound 0.1265 µM); 0.33 in assay [3] (first compound 0.4 µM); 0.316 in assay [3] (first compound 1.265 µM). For the same compound, the relative viability in assay [4] (first compound 0.04 µM) stood at 0.589; in assay [4] (first compound 0.1265 µM), 0.448; in assay [4] (first compound 0.4 µM) it was 0.494.

In the case of `O=C(O)c1ccc(-c2c[nH]c3ncc(-c4ccccc4)cc23)cc1C1CCCC1` + CC(=O)c1c(C)c2cnc(Nc3ccc(N4CCNCC4)cn3)nc2n(C2CCCC2)c1=O [Palbociclib] (partner 0.5 µM), the relative viability is 0.361 in assay [1] (first compound 0.04 µM); 0.358 in assay [1] (first compound 0.1265 µM); 0.369 in assay [1] (first compound 0.4 µM); 0.345 in assay [1] (first compound 1.265 µM); 0.977 in assay [2] (first compound 0.04 µM); 1.02 in assay [2] (first compound 0.1265 µM). The relative viability in assay [2] (first compound 0.4 µM) was 1.06; in assay [2] (first compound 1.265 µM), 1.1; in assay [3] (first compound 0.04 µM), 0.444; in assay [3] (first compound 0.1265 µM), 0.379; in assay [3] (first compound 0.4 µM) it was 0.233; in assay [3] (first compound 1.265 µM), 0.362. The relative viability was 0.285 in assay [4] (first compound 0.04 µM); 0.294 in assay [4] (first compound 0.1265 µM); 0.27 in assay [4] (first compound 0.4 µM); 0.674 in assay [5] (first compound 0.04 µM); 0.892 in assay [5] (first compound 0.1265 µM); 0.551 in assay [5] (first compound 0.4 µM). The relative viability in assay [5] (first compound 1.265 µM) is 0.742.

Consider `O=C(O)c1ccc(-c2c[nH]c3ncc(-c4ccccc4)cc23)cc1C1CCCC1` + NC(=O)Nc1cc(-c2cccc(F)c2)sc1C(=O)N[C@H]1CCCNC1 [AZD7762] (partner 0.2 µM), for which the relative viability in assay [1] (first compound 0.04 µM) worked out at 1.02; in assay [1] (first compound 0.1265 µM) it was 1.11; in assay [1] (first compound 0.4 µM), 1.08; in assay [1] (first compound 1.265 µM) it was 1; in assay [2] (first compound 0.04 µM), 0.662; in assay [2] (first compound 0.1265 µM), 0.896. For the same compound, the relative viability in assay [2] (first compound 0.4 µM) is 0.785; in assay [2] (first compound 1.265 µM), 0.882; in assay [3] (first compound 0.04 µM) it was 0.679; in assay [3] (first compound 0.1265 µM), 0.818; in assay [3] (first compound 0.4 µM), 0.888; in assay [3] (first compound 1.265 µM) it was 0.593. Moreover, the relative viability in assay [6] (first compound 0.1265 µM) worked out at 0.0651; in assay [6] (first compound 0.4 µM), 0.148; in assay [6] (first compound 1.265 µM), 0.135; in assay [4] (first compound 0.04 µM), 0.687; in assay [4] (first compound 0.1265 µM), 0.716; in assay [4] (first compound 0.4 µM), 0.82. Moreover, the relative viability in assay [5] (first compound 0.04 µM) was determined as 0.726; in assay [5] (first compound 0.1265 µM), 0.965; in assay [5] (first compound 0.4 µM) it was 0.89; in assay [5] (first compound 1.265 µM), 0.837.

Take `O=C(O)c1ccc(-c2c[nH]c3ncc(-c4ccccc4)cc23)cc1C1CCCC1` + Nc1nc2[nH]cc(CCc3ccc(C(=O)N[C@@H](CCC(=O)O)C(=O)O)cc3)c2c(=O)[nH]1 [Pemetrexed] (partner 0.2 µM): the relative viability in assay [1] (first compound 0.04 µM) worked out at 0.741; in assay [1] (first compound 0.1265 µM) it was 0.66; in assay [1] (first compound 0.4 µM) it was 0.707; in assay [1] (first compound 1.265 µM), 0.666; in assay [2] (first compound 0.04 µM) it was 0.829; in assay [2] (first compound 0.1265 µM), 1.04. Moreover, the relative viability came to 0.812 in assay [2] (first compound 0.4 µM); 0.928 in assay [2] (first compound 1.265 µM); 0.397 in assay [3] (first compound 0.04 µM); 0.576 in assay [3] (first compound 0.1265 µM); 0.376 in assay [3] (first compound 0.4 µM); 0.409 in assay [3] (first compound 1.265 µM). Moreover, the relative viability is 0.732 in assay [4] (first compound 0.04 µM), 0.853 in assay [4] (first compound 0.1265 µM) and 0.681 in assay [4] (first compound 0.4 µM).

`O=C(O)c1ccc(-c2c[nH]c3ncc(-c4ccccc4)cc23)cc1C1CCCC1` + Nc1ncn([C@H]2C[C@H](O)[C@@H](CO)O2)c(=O)n1 [Decitabine] (partner 2 µM): the relative viability stood at 0.585 in assay [1] (first compound 0.04 µM); 0.621 in assay [1] (first compound 0.1265 µM); 0.466 in assay [1] (first compound 0.4 µM); 0.569 in assay [1] (first compound 1.265 µM); 0.662 in assay [2] (first compound 0.04 µM); 0.593 in assay [2] (first compound 0.1265 µM). The relative viability in assay [2] (first compound 0.4 µM) is 0.591; in assay [2] (first compound 1.265 µM) it was 0.602; in assay [3] (first compound 0.04 µM), 0.341; in assay [3] (first compound 0.1265 µM), 0.362; in assay [3] (first compound 0.4 µM) it was 0.336; in assay [3] (first compound 1.265 µM), 0.368. Also, the relative viability in assay [7] (first compound 0.04 µM) is 0.291; in assay [7] (first compound 0.1265 µM) it was 0.265; in assay [7] (first compound 0.4 µM), 0.277; in assay [7] (first compound 1.265 µM) it was 0.251; in assay [4] (first compound 0.04 µM) it was 0.587; in assay [4] (first compound 0.1265 µM), 0.599. Moreover, the relative viability in assay [4] (first compound 0.4 µM) came out at 0.569; in assay [5] (first compound 0.04 µM), 1.1; in assay [5] (first compound 0.1265 µM), 1.1; in assay [5] (first compound 0.4 µM), 0.891; in assay [5] (first compound 1.265 µM), 0.931.
